Source: patent US8802849B2, “Tricyclic benzo[4,5]thieno-[2,3-d]pyrimidine-4-yl-amin derivatives, their salts, process for producing the compounds and their pharmaceutical use” (Vichem Chemie Kutató Kft., priority 2008, dated 2014)

Legend:
Jnk1a1 = Jnk1a1 (Homo sapiens, UniProt P45983); test: Jnk1a1 kinase assay; format: biochemical; details: 10 μM compound; read-out: Jnk1a1 percent of inhibition
Description: (§1) General description of the kinase assays: the kinase activity was assayed in 96-well microtiter plates at a final compound concentration of 10 μM in a total volume of 50 μl. Compounds were dissolved in 100% DMSO to prepare a 10 mM stock solution and than diluted with buffer to reach a 10 μM (or the required) final concentration. The kinase concentration was used to yield 10% ATP turn over. The ATP concentration was used at the KmATP and 12.5 μCi/ml adenosine 5′[γ-33P]triphosphate. The substrate concentration was used at 5 fold excess over the Km for the substrate. The reaction was incubated for 1 hour at room temperature and stopped by addition of 10 μl 50 mM EDTA. The assay was transferred to a 96 well MAPH filter plate (Millipore). The radioactivity was counted on a Microbeta microplate counter.

GSK-3beta = GSK-3beta (Homo sapiens, UniProt P49841); test: GSK-3beta kinase assay; format: biochemical; details: 10 μM compound; read-out: GSK-3beta percent of inhibition
Sequence of GSK-3beta (P49841 whole entry, species assumed): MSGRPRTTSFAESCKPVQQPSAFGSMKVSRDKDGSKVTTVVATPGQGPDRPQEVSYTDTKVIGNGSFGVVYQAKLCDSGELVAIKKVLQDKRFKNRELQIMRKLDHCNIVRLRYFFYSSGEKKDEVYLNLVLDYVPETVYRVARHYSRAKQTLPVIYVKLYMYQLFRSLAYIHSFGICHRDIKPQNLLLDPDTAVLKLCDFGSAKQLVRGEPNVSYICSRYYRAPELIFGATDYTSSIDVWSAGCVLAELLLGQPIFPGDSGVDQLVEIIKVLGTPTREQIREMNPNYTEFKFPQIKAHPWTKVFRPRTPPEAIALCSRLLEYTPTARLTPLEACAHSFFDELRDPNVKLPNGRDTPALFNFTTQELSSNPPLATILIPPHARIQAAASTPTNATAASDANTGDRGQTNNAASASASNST
Description: as §1

PDGFR-beta = PDGFR-beta (Homo sapiens, UniProt P09619); test: PDGFR-beta kinase assay; format: biochemical; details: 10 μM compound; read-out: PDGFR-beta percent of inhibition
Sequence of PDGFR-beta (P09619 33-1106, species assumed): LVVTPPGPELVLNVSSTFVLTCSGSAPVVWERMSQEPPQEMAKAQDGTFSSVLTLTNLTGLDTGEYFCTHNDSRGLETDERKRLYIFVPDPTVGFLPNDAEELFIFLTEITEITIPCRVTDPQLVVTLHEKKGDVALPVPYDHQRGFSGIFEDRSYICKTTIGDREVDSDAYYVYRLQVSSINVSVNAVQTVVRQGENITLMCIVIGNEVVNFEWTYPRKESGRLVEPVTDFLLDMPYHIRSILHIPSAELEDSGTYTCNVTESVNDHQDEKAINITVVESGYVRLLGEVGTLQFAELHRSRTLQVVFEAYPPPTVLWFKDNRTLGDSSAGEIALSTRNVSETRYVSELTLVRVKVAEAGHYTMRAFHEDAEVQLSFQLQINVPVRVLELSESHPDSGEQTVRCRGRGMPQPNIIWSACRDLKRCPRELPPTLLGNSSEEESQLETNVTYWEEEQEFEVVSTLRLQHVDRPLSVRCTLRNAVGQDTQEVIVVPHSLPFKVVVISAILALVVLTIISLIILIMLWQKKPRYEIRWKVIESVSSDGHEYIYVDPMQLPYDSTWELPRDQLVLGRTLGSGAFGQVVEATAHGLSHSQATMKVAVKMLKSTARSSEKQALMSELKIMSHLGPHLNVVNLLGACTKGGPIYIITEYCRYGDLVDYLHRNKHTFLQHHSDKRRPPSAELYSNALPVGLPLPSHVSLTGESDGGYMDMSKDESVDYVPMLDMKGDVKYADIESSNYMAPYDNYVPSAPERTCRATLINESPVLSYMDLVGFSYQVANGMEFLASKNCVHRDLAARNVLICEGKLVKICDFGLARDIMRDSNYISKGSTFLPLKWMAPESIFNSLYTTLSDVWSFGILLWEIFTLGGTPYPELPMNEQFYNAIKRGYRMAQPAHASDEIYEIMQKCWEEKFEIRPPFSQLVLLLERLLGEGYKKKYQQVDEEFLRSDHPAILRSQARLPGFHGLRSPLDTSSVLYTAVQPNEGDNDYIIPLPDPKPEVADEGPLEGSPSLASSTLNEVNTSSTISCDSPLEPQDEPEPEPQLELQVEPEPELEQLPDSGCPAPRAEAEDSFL
Description: as §1

c-Src = c-Src (Homo sapiens, UniProt P12931); test: c-Src kinase assay; format: biochemical; details: 10 μM compound; read-out: c-Src percent of inhibition
Sequence of c-Src (P12931 whole entry, species assumed): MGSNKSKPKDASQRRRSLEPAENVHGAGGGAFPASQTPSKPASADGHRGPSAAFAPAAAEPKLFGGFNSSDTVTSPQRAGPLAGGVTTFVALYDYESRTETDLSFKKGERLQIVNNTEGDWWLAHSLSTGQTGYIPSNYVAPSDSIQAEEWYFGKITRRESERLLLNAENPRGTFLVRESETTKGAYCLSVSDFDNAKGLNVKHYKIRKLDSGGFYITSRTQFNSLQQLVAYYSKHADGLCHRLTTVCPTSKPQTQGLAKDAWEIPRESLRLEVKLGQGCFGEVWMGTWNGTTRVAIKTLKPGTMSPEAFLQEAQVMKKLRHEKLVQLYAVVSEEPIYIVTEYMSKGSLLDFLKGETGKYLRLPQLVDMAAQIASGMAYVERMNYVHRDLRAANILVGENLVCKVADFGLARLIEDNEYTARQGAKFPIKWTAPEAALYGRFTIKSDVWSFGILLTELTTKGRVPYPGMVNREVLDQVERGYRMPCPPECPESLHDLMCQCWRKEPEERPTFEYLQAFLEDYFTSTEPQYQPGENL
Description: as §1

c-Raf = c-Raf (Homo sapiens, UniProt P04049); test: c-Raf kinase assay; format: biochemical; details: 10 μM compound; read-out: c-Raf percent of inhibition
Description: as §1

IKK-beta = target: T1, IKK-beta (Homo sapiens, UniProt O14920); test: IKK-beta kinase assay; format: biochemical; details: 10 μM compound; read-out: IKK-beta percent of inhibition
T1 sequence (O14920 1-756): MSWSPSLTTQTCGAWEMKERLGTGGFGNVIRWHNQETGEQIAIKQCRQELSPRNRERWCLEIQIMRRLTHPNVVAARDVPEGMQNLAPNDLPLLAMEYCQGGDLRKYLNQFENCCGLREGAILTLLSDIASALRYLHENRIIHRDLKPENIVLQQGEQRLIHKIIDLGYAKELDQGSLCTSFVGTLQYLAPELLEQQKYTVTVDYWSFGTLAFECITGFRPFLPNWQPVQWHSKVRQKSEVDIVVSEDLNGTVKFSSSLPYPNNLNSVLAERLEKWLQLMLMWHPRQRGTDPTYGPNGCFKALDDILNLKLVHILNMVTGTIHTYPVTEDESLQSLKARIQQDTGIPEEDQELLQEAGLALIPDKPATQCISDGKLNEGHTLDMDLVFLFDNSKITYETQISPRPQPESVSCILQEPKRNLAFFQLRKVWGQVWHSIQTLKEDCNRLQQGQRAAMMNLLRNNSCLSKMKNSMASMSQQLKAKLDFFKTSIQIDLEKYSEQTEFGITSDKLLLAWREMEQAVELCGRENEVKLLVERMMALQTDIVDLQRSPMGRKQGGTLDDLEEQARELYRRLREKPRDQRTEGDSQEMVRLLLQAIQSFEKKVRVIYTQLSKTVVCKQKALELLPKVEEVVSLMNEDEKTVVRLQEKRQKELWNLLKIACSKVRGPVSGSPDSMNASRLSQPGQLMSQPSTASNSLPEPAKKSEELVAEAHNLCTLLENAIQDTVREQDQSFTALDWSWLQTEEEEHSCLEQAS
Description: as §1

Kit = Kit (Homo sapiens, UniProt P10721); test: Kit kinase assay; format: biochemical; details: 10 μM compound; read-out: Kit percent of inhibition
Sequence of Kit (P10721 26-976, species assumed): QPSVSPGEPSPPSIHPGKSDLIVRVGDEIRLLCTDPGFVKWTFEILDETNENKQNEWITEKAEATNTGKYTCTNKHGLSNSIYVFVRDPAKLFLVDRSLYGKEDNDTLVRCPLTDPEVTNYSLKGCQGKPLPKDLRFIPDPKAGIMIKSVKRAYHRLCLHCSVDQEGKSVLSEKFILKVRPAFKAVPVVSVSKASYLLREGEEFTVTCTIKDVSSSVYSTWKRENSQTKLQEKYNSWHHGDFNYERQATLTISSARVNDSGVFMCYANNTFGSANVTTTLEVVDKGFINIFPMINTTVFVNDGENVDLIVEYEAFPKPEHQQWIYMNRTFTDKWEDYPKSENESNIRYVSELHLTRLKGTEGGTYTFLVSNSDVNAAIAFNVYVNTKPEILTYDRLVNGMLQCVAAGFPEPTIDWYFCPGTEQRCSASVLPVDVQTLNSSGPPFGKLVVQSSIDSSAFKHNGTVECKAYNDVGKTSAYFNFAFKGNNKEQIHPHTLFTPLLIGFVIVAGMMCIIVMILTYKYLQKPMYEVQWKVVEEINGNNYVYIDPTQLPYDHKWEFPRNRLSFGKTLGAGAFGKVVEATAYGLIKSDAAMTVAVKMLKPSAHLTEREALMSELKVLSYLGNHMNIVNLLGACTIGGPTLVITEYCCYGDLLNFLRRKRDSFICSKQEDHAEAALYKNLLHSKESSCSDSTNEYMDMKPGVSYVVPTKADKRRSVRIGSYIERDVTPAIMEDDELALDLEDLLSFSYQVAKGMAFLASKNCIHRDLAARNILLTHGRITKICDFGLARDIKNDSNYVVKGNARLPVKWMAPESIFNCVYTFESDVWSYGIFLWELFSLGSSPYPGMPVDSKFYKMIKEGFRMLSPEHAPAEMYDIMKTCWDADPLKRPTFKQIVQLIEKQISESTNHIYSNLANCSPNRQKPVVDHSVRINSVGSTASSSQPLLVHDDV
Description: as §1

P70S6K = P70S6K (Homo sapiens, UniProt P23443); test: P70S6K kinase assay; format: biochemical; details: 10 μM compound; read-out: P70S6K percent of inhibition
Description: as §1

MAPK-ERK1 = MAPK-ERK1 (Homo sapiens, UniProt P27361); test: MAPK-ERK1 kinase assay; format: biochemical; details: 10 μM compound; read-out: MAPK-ERK1 percent of inhibition
Description: as §1

CK1-alpha = CK1-alpha (Homo sapiens, UniProt P48729); test: CK1-alpha kinase assay; format: biochemical; details: 10 μM compound; read-out: CK1-alpha percent of inhibition
Sequence of CK1-alpha (P48729 whole entry): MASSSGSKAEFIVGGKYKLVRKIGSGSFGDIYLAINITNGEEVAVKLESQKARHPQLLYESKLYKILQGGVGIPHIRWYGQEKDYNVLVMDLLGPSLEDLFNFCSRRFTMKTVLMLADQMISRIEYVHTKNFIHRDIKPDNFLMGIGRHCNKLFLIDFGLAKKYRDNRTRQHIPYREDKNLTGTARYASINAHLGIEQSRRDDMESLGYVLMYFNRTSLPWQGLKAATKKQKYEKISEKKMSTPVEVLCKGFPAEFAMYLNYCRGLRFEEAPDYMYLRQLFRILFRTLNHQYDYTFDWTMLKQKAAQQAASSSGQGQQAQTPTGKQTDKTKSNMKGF
Description: as §1

EGFR = EGFR (Homo sapiens, UniProt P00533); test: EGFR kinase assay (33P-ATP filter plate); format: biochemical; details: for inhibition at 10 µM: 10 μM compound, read-out: EGFR percent of inhibition
Description: as §1

CDK2/CycA = CDK2/CycA (Homo sapiens, UniProt P24941); test: CDK2/CycA kinase assay; format: biochemical; details: 10 μM compound; read-out: CDK2/CycA percent of inhibition
Description: as §1

SRPK1 = SRPK1 (Homo sapiens, UniProt Q96SB4); test: SRPK1 kinase assay; format: biochemical; details: 10 μM compound; read-out: SRPK1 percent of inhibition
Description: as §1

cMet = cMet (Homo sapiens, UniProt P08581); test: cMet kinase assay; format: biochemical; details: 10 μM compound; read-out: cMet percent of inhibition
Description: as §1

Abl = Abl (Homo sapiens, UniProt P00519); test: Abl kinase assay; format: biochemical; details: 10 μM compound; read-out: Abl percent of inhibition
Description: as §1

AKT1/PKBa = AKT1/PKBa (Homo sapiens, UniProt P31749); test: AKT1/PKBa kinase assay; format: biochemical; details: 10 μM compound; read-out: AKT1/PKBa percent of inhibition
Sequence of AKT1/PKBa (P31749 whole entry): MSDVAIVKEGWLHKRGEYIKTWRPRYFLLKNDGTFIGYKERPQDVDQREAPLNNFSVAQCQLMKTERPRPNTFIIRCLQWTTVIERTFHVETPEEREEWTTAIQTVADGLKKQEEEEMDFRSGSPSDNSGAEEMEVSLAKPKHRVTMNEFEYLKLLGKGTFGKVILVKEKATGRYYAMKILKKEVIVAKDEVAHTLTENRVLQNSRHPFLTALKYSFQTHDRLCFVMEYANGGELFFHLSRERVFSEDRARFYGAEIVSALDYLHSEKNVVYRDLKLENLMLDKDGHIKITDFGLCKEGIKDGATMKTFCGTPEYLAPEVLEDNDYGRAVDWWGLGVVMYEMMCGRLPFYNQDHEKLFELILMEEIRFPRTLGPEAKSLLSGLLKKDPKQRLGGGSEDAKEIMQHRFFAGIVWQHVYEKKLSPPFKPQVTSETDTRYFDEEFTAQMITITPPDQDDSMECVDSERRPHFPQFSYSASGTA
Description: as §1

ROCK2 = ROCK2 (Homo sapiens, UniProt O75116); test: ROCK2 kinase assay; format: biochemical; details: 10 μM compound; read-out: ROCK2 percent of inhibition
Description: as §1

RSK1 = RSK1 (Homo sapiens, UniProt Q15418); test: RSK1 kinase assay; format: biochemical; details: 10 μM compound; read-out: RSK1 percent of inhibition
Sequence of RSK1 (Q15418 whole entry, species assumed): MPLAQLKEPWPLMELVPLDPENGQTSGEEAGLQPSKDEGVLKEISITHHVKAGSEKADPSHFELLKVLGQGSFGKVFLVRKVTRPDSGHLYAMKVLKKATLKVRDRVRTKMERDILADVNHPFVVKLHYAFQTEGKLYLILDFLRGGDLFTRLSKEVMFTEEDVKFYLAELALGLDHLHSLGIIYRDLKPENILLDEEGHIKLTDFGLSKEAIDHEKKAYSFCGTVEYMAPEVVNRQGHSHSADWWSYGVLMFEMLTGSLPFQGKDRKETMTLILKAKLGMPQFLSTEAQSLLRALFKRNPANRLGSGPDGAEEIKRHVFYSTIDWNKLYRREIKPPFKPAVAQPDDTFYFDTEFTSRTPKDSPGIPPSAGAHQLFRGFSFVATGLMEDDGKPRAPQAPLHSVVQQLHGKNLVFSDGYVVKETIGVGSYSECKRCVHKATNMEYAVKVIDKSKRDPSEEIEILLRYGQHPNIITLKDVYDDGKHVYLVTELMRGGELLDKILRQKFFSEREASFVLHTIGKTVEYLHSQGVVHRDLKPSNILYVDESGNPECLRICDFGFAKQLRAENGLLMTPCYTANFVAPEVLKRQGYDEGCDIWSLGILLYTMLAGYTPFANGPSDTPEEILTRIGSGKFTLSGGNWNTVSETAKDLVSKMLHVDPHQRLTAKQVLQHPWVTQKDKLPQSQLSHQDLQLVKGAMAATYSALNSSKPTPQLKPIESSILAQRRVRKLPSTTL
Description: as §1

P56Lck = P56Lck (Homo sapiens, UniProt P06239); test: P56Lck kinase assay; format: biochemical; details: 10 μM compound; read-out: P56Lck percent of inhibition
Description: as §1

InsR = InsR (Homo sapiens, UniProt P06213); test: InsR kinase assay; format: biochemical; details: 10 μM compound; read-out: InsR percent of inhibition
Description: as §1

Sequence of Jnk1a1 (P45983 1-384 isoform P45983-2): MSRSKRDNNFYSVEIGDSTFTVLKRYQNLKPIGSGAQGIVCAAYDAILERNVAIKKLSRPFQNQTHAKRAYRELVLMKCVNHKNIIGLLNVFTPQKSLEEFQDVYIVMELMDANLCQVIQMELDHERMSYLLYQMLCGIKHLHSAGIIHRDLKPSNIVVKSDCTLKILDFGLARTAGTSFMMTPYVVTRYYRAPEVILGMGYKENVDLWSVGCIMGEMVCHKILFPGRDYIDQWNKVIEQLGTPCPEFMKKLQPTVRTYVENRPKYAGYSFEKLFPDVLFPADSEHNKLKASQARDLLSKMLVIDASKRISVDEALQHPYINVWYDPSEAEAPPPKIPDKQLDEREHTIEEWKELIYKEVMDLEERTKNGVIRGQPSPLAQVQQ

Row | Compound | inhibition at 10 µM (Jnk1a1) [%] | inhibition at 10 µM (GSK-3beta) [%] | inhibition at 10 µM (PDGFR-beta) [%] | inhibition at 10 µM (c-Src) [%] | inhibition at 10 µM (c-Raf) [%] | inhibition at 10 µM (IKK-beta) [%] | inhibition at 10 µM (Kit) [%] | inhibition at 10 µM (P70S6K) [%] | inhibition at 10 µM (MAPK-ERK1) [%] | inhibition at 10 µM (CK1-alpha) [%] | inhibition at 10 µM (EGFR) [%] | inhibition at 10 µM (CDK2/CycA) [%] | inhibition at 10 µM (SRPK1) [%] | inhibition at 10 µM (cMet) [%] | inhibition at 10 µM (Abl) [%] | inhibition at 10 µM (AKT1/PKBa) [%] | inhibition at 10 µM (ROCK2) [%] | inhibition at 10 µM (RSK1) [%] | inhibition at 10 µM (P56Lck) [%] | melting point [°C] | also measured
1 | N#Cc1cccc(Nc2ncnc3sc4c(c23)CCCC4)c1 [Compound 5, 3-(5,6,7,8-Tetrahydro-benzo[4,5]thieno[2,3-d]pyrimidin-4-ylamino)-benzonitrile] | -3 | -6 | -5 | 8 | 0 | 10 | -5 | 1 | -5 | 7 | 99 | 9 | 7 | -4 | -7 | -25 | -2 | 19 | -5 | 194.6 | inhibition at 10 µM (InsR): -7%
2 | Clc1ccc(Nc2ncnc3sc4c(c23)CCCC4)cc1 [Compound 7, (4-Chloro-phenyl)-(5,6,7,8-tetrahydro-benzo[4,5]thieno[2,3-d]pyrimidin-4-yl)-amine] | -7 | 2 | 15 | 25 | -20 | 9 | 10 | -17 | -9 | 5 | 100 | -1 | -3 | -7 | -9 | -11 | 3 | -15 | 30 | 191.2 | IC50 (EGFR; EGFR-PTK assay): 12.8 nM; inhibition at 10 µM (InsR): -16%
3 | Nc1ccc(Nc2ncnc3sc4c(c23)CCCC4)cc1 [Compound 8, N-(5,6,7,8-Tetrahydro-benzo[4,5]thieno[2,3-d]pyrimidin-4-yl)-benzene-1,4-diamine] | 20 | 8 | 6 | 16 | 11 | 16 | 20 | 7 | 12 | 4 | 96 | 12 | -4 | 9 | 19 | 4 | -11 | 6 | 2 | 203.1 | inhibition at 10 µM (InsR): 36%
4 | Clc1cccc(Nc2nc(C3CC3)nc3sc4c(c23)CCCC4)c1 [Compound 9, (3-Chloro-phenyl)-(2-cyclopropyl-5,6,7,8-tetrahydro-benzo[4,5]thieno[2,3-d]pyrimidin-4-yl)-amine] | -6 | -6 | -2 | 3 | -6 | -2 | -6 | 0 | 2 | -3 | 66 | -10 | 7 | -14 | -20 | -10 | 5 | 2 | 0 | 208.6 | inhibition at 10 µM (InsR): 3%
5 | Oc1cccc(Nc2nc(C3CC3)nc3sc4c(c23)CCCC4)c1 [Compound 10, 3-(2-Cyclopropyl-5,6,7,8-tetrahydro-benzo[4,5]thieno[2,3-d]pyrimidin-4-ylamino)-Phenol] | -12 | -8 | -5 | 3 | -3 | 10 | -12 | 6 | 9 | 4 | 23 | -11 | 18 | 3 | -2 | 0 | 6 | -12 | 3 | 239.7 | inhibition at 10 µM (InsR): 2%
